Test [1] has as its system C. parvum. As to the kind of experiment: C. parvum in vitro EC50 assay in HCT-8 cells. The conditions noted are these: Cryptosporidium parvum, HCT8 cells, 24 hr, Mean +/- S.D., N = 3, 9 pt curve. In kind it is cell-based. As to the method: (§1) In vitro assays measuring the EC50 value for C. parvum infection may be run to determine the efficacy of the compounds. For example, human ileocecal adenocarcinoma (HCT-8) cells can be obtained from ATCC and maintained in T-75 tissue culture flasks with RPMI 1640 medium with HEPES, sodium pyruvate (1 mM), and L-glutamine (ATCC) supplemented with 10% horse serum (ATCC) and 120 U/ml penicillin and 120 μg/ml streptomycin. Cells can be plated into 384-well, tissue culture-treated, black-walled, clearbottom microwell plates (BD Falcon) at a density of 8,850 cells/well and allowed to grow to confluence. The cells may then be inoculated with 5.5×10^3 primed C. parvum oocysts (Bunchgrass Farms, Deary, ID) suspended in inoculation medium (RPMI 1640 without horse serum). Oocysts may be primed for excystation by following a previously described protocol (J. Eukaryot. Microbiol. 46:56S-57S). Briefly, oocysts can be treated for 10 min with 10 mM HCl at 37° C., centrifuged, and treated with a 2 mM solution of sodium taurocholate (Sigma-Aldrich) in phosphate-buffered saline (PBS) with Ca^2+ and Mg^2+. The suspension can be incubated for 10 min at 16° C. and then diluted in inoculation medium and added to each well. Infected cells are incubated at 37° C. for 3 h, at which point an equal volume of growth medium containing 20% horse serum (total serum concentration of 10%) is produced. Compounds are diluted and assayed at fixed doses (e.g., 0.12, 0.37, 1.1, 3.3, and 10 μM, with each concentration, n=14) for the generation of EC50 curves. In the case of final EC50 curves, three wells are left uninfected but treated with each of the corresponding concentrations of the compound to assess for background staining. All curves are generated using the log[inhibitor] versus response variable slope equation in GraphPad Prism, with the bottom constraint set equal to 0.
(§2) Such assays were prepared on HTC-8 cells and ALI. Table 2 illustrates measured EC50 at various time points.

Test [2] relates to C. parvum. As to the kind of experiment: C. parvum in vitro EC50 assay in ALI culture. The conditions noted are these: Cryptosporidium parvum, 48 hr, Mean +/- S.D., N = 2, 5 pt curve. In kind it is cell-based. As to the method: as §1, §2
Briefly, i3T3 cells were plated in CM media. Spheroids were plated on the cells. […]

In US12414935B2, “Compounds and methods for the treatment of parasitic diseases” (WASHINGTON UNIVERSITY, priority 2019, dated 2025) one finds EC50 data, which are given here for three molecules.

In general, EC50 refers to the midpoint of the concentration-response curve. Low values mean higher potency in that assay, high ones lower potency in that assay.

As for `COc1ccc(NC(=O)N2CCCCN3[C@H](CN(C)S(C)(=O)=O)[C@H](c4ccc(C#Cc5ccccc5)cc4)[C@@H]3C2)cc1` [Compound 1, (8R,9R,10S)-N-(4-methoxyphenyl)-10-((N-methylmethylsulfonamido)methyl)-9-(4-(phenylethynyl)phenyl)-1,6-diazabicyclo[6.2.0]decane-6-carboxamide], the EC50 with C. parvum [1] worked out at 11 ± 3 nM; with C. parvum [2], 28 ± 2 nM.
As for `COc1ccc(NC(=O)N2CCCCN3[C@H](CN(C)C)[C@H](c4ccc(C#Cc5ccccc5)cc4)[C@@H]3C2)cc1` [Compound 2, (8R,9S,10S)-10-((dimethylamino)methyl)-N-(4-methoxyphenyl)-9-(4-(phenylethynyl)phenyl)-1,6-diazabicyclo[6.2.0]decane-6-carboxamide], the concentration for a half-maximal effect (EC50) with C. parvum [1] turned out to be 33 ± 9 nM; in the test on C. parvum [2], 113 ± 15 nM.
`CC(=O)Oc1ccccc1C(=O)Nc1ncc([N+](=O)[O-])s1` [Nitazoxanide, reference compound]: the EC50 in the test on C. parvum [1] is 2190 ± 378 nM; with C. parvum [2], 25900 ± 4140 nM.
